Source: paper PMC5442318, “Hundreds of dual-stage antimalarial molecules discovered by a functional gametocyte screen” (Nature Communications, 2017)

Key:
[1] = system: P. falciparum stage V female gametocytes; assay: P. falciparum female gametocyte activation assay (Pf FGAA), 24 h or 48 h preincubation, Pfs25 expression readout; type: cell-based, Plasmodium falciparum NF54; details: mean; read-out: Gametocytes mean Pf FGAA IC50
Method in brief: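 Female activation, triggered by xanthurenic acid and cooling, was scored by imaging Cy3-labelled anti-Pfs25 female gametes after 24 h at 26 °C. Beforehand, purified NF54 stage V gametocytes had been incubated with compound for either 24 h or 48 h (37 °C, 3% O2). Values are pIC50 from full-curve regression.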

HepG2 cells = assay: HepG2 cytotoxicity assay; type: cell-based; details: mean
Method in brief: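 Luminescent read-out (CellTiter-Glo) taken 10 min after reagent addition at RT; plates and reagent pre-equilibrated 30 min at RT.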

[2] = system: P. falciparum asexual blood stages; details: TCAMS data; ref 1 (Gamo et al., 2010); read-out: Pf Asexual blood stages XC50; cited from earlier work
[3] = system: P. falciparum stages IV–V gametocytes; assay: Gametocytocidal ATP-depletion assay (gametocyte ATP bioluminescence); type: cell-based, Plasmodium falciparum
Method in brief: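 Read-out is luciferase luminescence of parasite ATP (BacTiter-Glo), standing in for viability. Double-purified mature stage IV–V gametocytes, 12,500 per well, were exposed 48 h at 37 °C in low-O2 gas; screening concentration 2 μM.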

IC50 [1] [nM]	Compound	HepG2 cells mean TOX50 (HepG2 cells) [µM]	IC50 [2] [nM]	Gametocytes mean ATP inhibition at 2µM (%) [3] [%]
2250	CCc1ccc(C2CCN(CCCCNC(=O)c3ccc(NC(=O)c4ccc(Cl)cc4)cc3)CC2)c(OCCO)c1 [TCMDC-138703]	5.37	1390	-4.56
850	COc1cc2nc(N3CCC(CNC(=O)c4ccc(-c5ccc(C(F)(F)F)cc5)cc4)CC3)nc(N)c2cc1OC [TCMDC-138716]	4.92	130	21.96
890	COc1cc2nc(N3CCC(CNC(=O)c4ccc(-c5ccc(Cl)cc5)cc4)CC3)nc(N)c2cc1OC [TCMDC-138718]	4.22	150	12.29
1050	COc1cc2nc(N3CCC(CNC(=O)c4ccc(-c5ccc(-c6noc(C)n6)cc5)cc4)CC3)nc(N)c2cc1OC [TCMDC-138754]	4.90	140	90.89
100	COc1cc2nc(N3CCC(CNCc4ccc(-c5ccc(C(F)(F)F)cc5)cc4)CC3)nc(N)c2cc1OC [TCMDC-138757]	1.43	90	99.68
1980	O=C(NCCCCN1CCC(c2ccc3c(c2OCCN2CCCC2)CCCC3)CC1)c1ccc(-c2ccc(C(F)(F)F)cc2)cc1 [TCMDC-138768]	5.39	450	-10.59
1800	O=C(NC1CCN(CCN2CCC(c3c[nH]c4ccccc34)CC2)CC1)c1ccc(-c2ccc(C(F)(F)F)cc2)cc1 [TCMDC-138845]	4.68	210	-6.33
1030	CC(C)Cn1cc(C2CCN(CCN3CCC(CNC(=O)c4ccc(-c5ccc(C#N)cc5)cc4)CC3)CC2)c2ccccc21 [TCMDC-138849]	4.79	790	8.40
880	CC(C)Cn1cc(C2CCN(CCN3CCC(CNC(=O)c4ccc(-c5ccc(C(F)(F)F)cc5)cc4)CC3)CC2)c2ccccc21 [TCMDC-138852]	4.80	750	30.37
1470	O=C(NCC1CCN(CCN2CCC(c3cn(CCO)c4ccccc34)CC2)CC1)c1ccc(-c2ccc(C(F)(F)F)cc2)cc1 [TCMDC-138856]	2.69	440	5.55
1460	COc1c(C2CCN(CCN3CCC(CNC(=O)c4ccc(-c5ccc(C#N)cc5)cc4)CC3)CC2)ccc2c1CCCC2 [TCMDC-138859]	3.43	460	3.05
1230	CC1(C)CC(NCCCCCCCOc2ccc(OCc3ccccc3)cc2)CC(C)(C)N1.Cl [TCMDC-138958]	2.75	830	38.17
520	Cl.Clc1ccc(OCCC2CCN(CCCCCCCN3CCC(CCOc4ccc(Cl)c(Cl)c4)CC3)CC2)cc1Cl [TCMDC-138967]	1.64	620	95.79
1410	COc1ccc(NC(=O)c2ccc(OCCCCCCCOc3ccc(C(=O)Nc4ccc(OC)c(N5CCN(C)CC5)c4)cc3)cc2)cc1N1CCN(C)CC1.O=C(O)C(=O)O [TCMDC-139007]	4.43	600	-8.09
1060	COc1ccc(NC(=O)c2cccc(Br)c2)cc1N1CCN(CCCCCCCN2CCN(c3cc(NC(=O)c4cccc(Br)c4)ccc3OC)CC2)CC1.Cl [TCMDC-139020]	6.03	180	-4.19
1440	Oc1ccc2[nH]cc(C3CCN(CCCNCc4ccc(-c5ccccc5)cc4)CC3)c2c1 [TCMDC-139047]	5.62	730	-20.32

IC50 [1] [nM]	Compound	HepG2 cells mean TOX50 (HepG2 cells) [µM]	IC50 [2] [nM]	Gametocytes mean ATP inhibition at 2µM (%) [3] [%]
2380	Cl.Nc1c2c(nc3ccc(NC(=O)CCCCCCc4ccccc4)cc13)CCCC2 [TCMDC-139056]	5.42	250	-10.66
590	COC(=O)c1ccc(-c2ccc(-c3cccnc3)cc2C)cc1 [TCMDC-139074]	3.63	660	88.85
140	c1ccc(C23N=C(Nc4nc5ccccc5[nH]4)NC2(c2ccccc2)NC(Nc2nc4ccccc4[nH]2)=N3)cc1 (centres unmarked) [TCMDC-139082]	58.90	280	65.26
90	COc1cccc(C23N=C(Nc4nc5ccccc5[nH]4)NC2(c2cccc(OC)c2)NC(Nc2nc4ccccc4[nH]2)=N3)c1 (centres unmarked) [TCMDC-139087]	40.74	160	64.05
150	Clc1cccc(C23N=C(Nc4nc5ccccc5[nH]4)NC2(c2ccccc2)NC(Nc2nc4ccccc4[nH]2)=N3)c1 (centres unmarked) [TCMDC-139089]	42.76	520	71.66
580	c1ccc(-c2nc(Nc3nc4ccccc4[nH]3)[nH]c2-c2ccccc2)cc1 [TCMDC-139099]	10.98	620	51.90
1800	C=C[C@H]1CN(CCCCCCC)CC[C@H]1CCNc1ccnc2ccc(OC)cc12 [TCMDC-139204]	2.24	60	31.13
1000	CC(NCCc1cccc(Cl)c1)C(O)c1ccc(OCCCCCCOc2ccc(C(O)C(C)NCCc3cccc(Cl)c3)cc2)cc1 (centres unmarked) [TCMDC-139334]	2.63	400	41.15
2690	Cc1cc(N)c2cc(NC(=O)/C=C/c3ccc([N+](=O)[O-])cc3)ccc2n1 [TCMDC-139335]	5.37	670	-7.69
860	Cc1cc(N)c2cc(NC(=O)c3cc(C(F)(F)F)cc(C(F)(F)F)c3)ccc2n1.Cl [TCMDC-139377]	2.60	90	0.86
860	CC(Cc1ccc(CNC(=O)c2ccc(CC(C)NCCc3cccc(Cl)c3)cc2)cc1)NCCc1cccc(Cl)c1 (centres unmarked) [TCMDC-139659]	2.26	700	-0.70
810	CC(=O)N(Cc1ccc(CC(C)NCCc2cccc(Cl)c2)cc1)Cc1ccc(CC(C)NCCc2cccc(Cl)c2)cc1 (centres unmarked) [TCMDC-139678]	2.85	780	14.97
30	c1cc(Nc2nc(-c3ccc(-c4csc(Nc5ccncc5)n4)cc3)cs2)ccn1 [TCMDC-139725]	2.26	120	93.92
1010	CC(Cc1ccc(C(=O)Nc2ccc(CC(C)NCCc3cccc(Cl)c3)cc2)cc1)NCCc1ccc(C(F)(F)F)cc1 (centres unmarked) [TCMDC-139790]	4.13	570	57.11
1840	CC(Cc1ccc(NS(=O)(=O)c2ccc(CC(C)NCCc3cccc(Cl)c3)cc2)cc1)NCCc1cccc(Cl)c1 (centres unmarked) [TCMDC-139797]	4.37	770	-2.49
1390	CC(CCCCCC(=O)Nc1ccc(CC(C)NCCc2cccc(Cl)c2)cc1)NCCc1cccc(Cl)c1 (centres unmarked) [TCMDC-139800]	2.55	950	20.09

Compound	IC50 [1] [nM]	HepG2 cells mean TOX50 (HepG2 cells) [µM]	IC50 [2] [nM]	Gametocytes mean ATP inhibition at 2µM (%) [3] [%]
O=C(O)C(F)(F)F.O=S(=O)(c1ccccc1)n1ccc2cc(Nc3ncnc4cc(C#C[C@H]5CCCN5)sc34)ccc21 [TCMDC-138913]	1170	5.50	1070	75.13
Cc1cc2nc(N=C3NC4(c5ccccn5)NC(=Nc5nc6cc(C)c(C)cc6[nH]5)NC4(c4ccccn4)N3)[nH]c2cc1C.O=C(O)C(F)(F)F (centres unmarked) [TCMDC-139105]	5340	35.91	680	33.60
COc1ccc2nc(N=C3NC4(c5ccccc5)NC(=Nc5nc6ccc(OC)cc6[nH]5)NC4(c4ccccc4)N3)[nH]c2c1.O=C(O)C(F)(F)F (centres unmarked) [TCMDC-139632]	120	62.72	200	67.82
